The source of these data is PMC6164231, “Evaluation of Chemical Strategies for Improving the Stability and Oral Toxicity of Insecticidal Peptides” (Biomedicines, 2018).

Data set [1] is described as follows: Susceptibility to scrambling of Hv1a and diselenide analogs (buffer with or without GSH). It is filed as physicochemical. The note with it: for susceptibility to scrambling in the presence of GSH: 1 equivalent GSH; for Correctly Folded Toxin, In Buffer, pH 7.2: 45 μL of 250 μM peptide + 45 μL 0.1 M phosphate buffer pH 7.2, 24 h; for Correctly Folded Toxin, In Buffer, pH 7.2 / Correctly Folded Toxin, With 1 Equivalent GSH, pH 7.2: quenched with 1% TFA, analytical RP-HPLC; for Correctly Folded Toxin, With 1 Equivalent GSH, pH 7.2: 45 μL of 250 μM peptide + 45 μL 0.1 M phosphate buffer pH 7.2 containing 250 μM GSH, 24 h. As for the experimental part:
Peptide (45 μL of a 250 μM solution) was combined with either 45 μL of buffer (0.1 M phosphate buffer, pH 7.2) or 45 μL of buffer containing 250 μM GSH. After 24 h, the reaction was quenched with 1% TFA and the solution analysed using analytical RP-HPLC.

Data set [2] relates to sheep blowflies (Lucilia cuprina). Kind of data set: Blowfly toxicity assay, injection. It is filed as in vivo. The note with it: injected into ventro-lateral thoracic region, lethality after 24 h; three tests, n = 10 flies per dose. The protocol:
Injection assays using sheep blowflies (Lucilia cuprina) were performed as described. Briefly, peptides were dissolved in insect-saline and injected into the ventro-lateral thoracic region of blowflies (mass 16.5–27.0 mg). Thereafter, flies were individually housed in 2 mL tubes and lethality determined after 24 h.
(§1) Tests for oral toxicity in blowflies were performed as described. In short, peptides were dissolved in 5% sucrose and 3 μL of this solution was applied to the inside of a 2 mL tube containing a single fly (mass 16.8–25.3 mg). Flies were kept in the tube overnight without additional food or water until the sucrose solution was consumed. Thereafter, flies were transferred into 250 mL plastic containers and provided with a sugar cube and wet cotton wool. Each box housed 10 flies that received the same treatment. Oral toxicity was determined three days after the oral application. For both injection and oral toxicity assays, three tests were carried for each peptide, and for each test several doses of peptide (n = 10 flies per dose) were used along with appropriate controls (i.e., insect saline or 5% sucrose solution; n = 20–40). LD50 values were calculated as described previously.

For data set [3] the test system is unchanged. Kind of data set: Blowfly toxicity assay, oral. Type of data set: in vivo. The note with it: feeding to sheep blowflies; full dose-response curves not determined (Figure 4). The protocol:
as §1

Data set [4] in a line: Midgut permeation assay (Ussing chamber). It is filed as in vitro ADME, Manduca sexta. The note with it: 10 µM in luminal fluid, separate occasion / different batch of M. sexta, comparison with 1,4-SeSe-Hv1a, 1 h at 30 °C, HPLC/ELISA/MALDI-TOF MS, mean ± S.E.M, n = 11–12 tissues. For orientation: ELISA stands for enzyme-linked immunosorbent assay.
Method: Flat-sheet preparations of the anterior midgut of Manduca sexta were mounted in Ussing-type chambers as previously described [39]. The lumen to hemolymph flux was determined by applying various concentrations of peptide (0.1, 1, and 10 μM) to the luminal side of the tissue and taking aliquots of saline from the hemolymph side after 1 h incubation at 30 °C (n = 9–19 tissues per peptide and dose). […] To check for damage to gut tissues that would allow leakage of peptides through the tissues, 1% amaranth, which is not absorbed across gut epithelia, was added to the luminal side of the tissue. Samples were analysed using a combination of liquid chromatography, enzyme-linked immunosorbent assay (ELISA), and matrix-assisted laser desorption/ionisation time-of-flight mass spectrometry (MALDI-TOF MS) to quantify the amount of intact peptide present on the hemolymph side of the tissue [39].
Chromatography was performed using a Beckman System Gold chromatographic system (Beckman Coulter Ltd., High Wycombe, UK) consisting of a dual pump programmable solvent module 126 and System Gold UV detector module 166. […] Samples were eluted using a linear gradient of 10–60% ACN/0.1% TFA over 50 min at a flow rate of 0.2 mL/min, and elution monitored at 214 nm. […] Absorbance was converted to peptide concentration using standard curves. […]
Data set [5] deals with Sarcophaga flesh flies. The note with it: cited from earlier work.
The mark [6] stands for this setting: 0.1 M phosphate buffer pH 7.2, 24 h, RP-HPLC.

In the case of [C17U,C36U]-Hv1a [3,6-SeSe-Hv1a], in data set [1] (setting [6]), the “stability in neutral media” value was “marginal instability” and the “susceptibility to scrambling in the presence of GSH” value (from here on “susceptibility to scrambling”) is “more susceptible to scrambling”. In addition, in data set [1], the “Correctly Folded Toxin, In Buffer, pH 7.2” value turned out to be 95% and the “Correctly Folded Toxin, With 1 Equivalent GSH, pH 7.2” value is recorded as 60%. Besides, in data set [2], the “LD50, injection into sheep blowflies” value is given as 446 ± 12 pmol/g. In data set [3], the “oral activity compared with native Hv1a” value is listed as “significantly lower than native Hv1a”.
Consider [C4U,C18U]-Hv1a [1,4-SeSe-Hv1a], for which, in data set [1] (setting [6]), the “susceptibility to scrambling” value is on record as “only weakly prone to scrambling”. In addition, in data set [1], the “Correctly Folded Toxin, In Buffer, pH 7.2” value is reported as 100% and the “Correctly Folded Toxin, With 1 Equivalent GSH, pH 7.2” value was found to be 85%. In addition, the “LD50, injection into sheep blowflies” value in data set [2] amounted to 407 ± 22 pmol/g. The “Lumen to Hemolymph Flux” value in data set [4] stood at 227 ± 14 pmol/cm^2/h.
[C11U,C22U]-Hv1a [2,5-SeSe-Hv1a]: the “susceptibility to scrambling” value in data set [1] (setting [6]) was “only weakly prone to scrambling”. In data set [1], the “Correctly Folded Toxin, In Buffer, pH 7.2” value was determined as 100% and the “Correctly Folded Toxin, With 1 Equivalent GSH, pH 7.2” value was 82%. Further, the “LD50, injection into sheep blowflies” value in data set [2] was 455 ± 35 pmol/g.

B1: AaIT: scorpion toxin AaIT (peptide, UniProt P01497 19-88, looked up)
Beta-insect excitatory toxin 1: KKNGYAVDSSGKAPECLLSNYCNNECTKVHYADKGYCCLLSCYCFGLNDDKKVLEISDTRKSYCDTTIIN
Take B1: the “ratio oral vs. injection LD50” value in data set [5] is listed as 714.
